Test results reported in the CheMixHub viscosity set.
Where “and” joins values, the source holds several entries; their conditions need not be identical. Equal entries are not always repeated. ± gives the uncertainty stated by the source.

Experiment: xn = mol fraction of the nth substance listed

CCC(=O)O + CCC(C)=O
viscosity [mPa·s], 101 kPa
Settings | x2 = 0.0847 | x2 = 0.1723 | x2 = 0.2585 | x2 = 0.357 | x2 = 0.4544 | x2 = 0.5554 | x2 = 0.6602 | x2 = 0.7691 | x2 = 0.8822
293.15 K | 1.038 ± 0.027 | 0.9722 ± 0.025 | 0.9093 ± 0.023 | 0.8393 ± 0.022 | 0.7718 ± 0.02 | 0.7038 ± 0.018 | 0.6354 ± 0.016 | 0.5665 ± 0.015 | 0.4974 ± 0.013
303.15 K | 0.9022 ± 0.023 | 0.846 ± 0.022 | 0.7921 ± 0.02 | 0.7324 ± 0.019 | 0.6751 ± 0.017 | 0.6177 ± 0.016 | 0.556 ± 0.014 | 0.5027 ± 0.013 | 0.4455 ± 0.012
313.15 K | 0.7975 ± 0.021 | 0.7494 ± 0.019 | 0.7031 ± 0.018 | 0.6516 ± 0.017 | 0.6019 ± 0.016 | 0.5519 ± 0.014 | 0.5015 ± 0.013 | 0.4508 ± 0.012 | 0.4 ± 0.01

C[C@H](N)C(=O)O + O
Settings | viscosity
298 K, 101 kPa, x1 = 0.0004 | 0.887 ± 0.0076 mPa·s
298 K, 101 kPa, x1 = 0.0007 | 0.8925 ± 0.0076 mPa·s
298 K, 101 kPa, x1 = 0.001 | 0.8956 ± 0.0077 mPa·s
298 K, 101 kPa, x1 = 0.0018 | 0.9013 ± 0.0077 mPa·s
298.15 K, 100 kPa, x1 = 0.0004 | 0.8955 ± 0.036 mPa·s
298.15 K, 100 kPa, x1 = 0.0007 | 0.8979 ± 0.036 mPa·s
298.15 K, 100 kPa, x1 = 0.001 | 0.9003 ± 0.036 mPa·s and 0.9029 ± 0.036 mPa·s
298.15 K, 101 kPa, x1 = 0.000169 | 0.9489 ± 0.045 mPa·s and 0.9489 ± 0.031 mPa·s
298.15 K, 101 kPa, x1 = 0.00045 | 0.8958 ± 0.021 mPa·s
298.15 K, 101 kPa, x1 = 0.0009 | 0.9013 ± 0.021 mPa·s
298.15 K, 101 kPa, x1 = 0.00135 | 0.9069 ± 0.021 mPa·s
298.15 K, 101 kPa, x1 = 0.00178 | 0.9677 ± 0.046 mPa·s and 0.9677 ± 0.031 mPa·s
298.15 K, 101 kPa, x1 = 0.0018 | 0.9126 ± 0.021 mPa·s
298.15 K, 101 kPa, x1 = 0.002695 | 0.9242 ± 0.021 mPa·s
298.15 K, 101 kPa, x1 = 0.003596 | 0.9759 ± 0.046 mPa·s and 0.9759 ± 0.031 mPa·s
298.15 K, 101 kPa, x1 = 0.005338 | 0.9871 ± 0.047 mPa·s and 0.9871 ± 0.031 mPa·s
298.15 K, 101 kPa, x1 = 0.01087 | 1.039 ± 0.049 mPa·s and 1.039 ± 0.031 mPa·s
298.15 K, 101 kPa, x1 = 0.0124 | 1.045 ± 0.049 mPa·s and 1.045 ± 0.031 mPa·s
298.15 K, 101 kPa, x1 = 0.01417 | 1.054 ± 0.05 mPa·s and 1.054 ± 0.031 mPa·s
303.15 K, 101 kPa, x1 = 0.00045 | 0.8023 ± 0.018 mPa·s
303.15 K, 101 kPa, x1 = 0.0009 | 0.8076 ± 0.018 mPa·s
303.15 K, 101 kPa, x1 = 0.00135 | 0.8128 ± 0.019 mPa·s
303.15 K, 101 kPa, x1 = 0.0018 | 0.8182 ± 0.019 mPa·s
303.15 K, 101 kPa, x1 = 0.001802 | 0.8176 ± 0.017 mPa·s
303.15 K, 101 kPa, x1 = 0.002245 | 0.8235 ± 0.019 mPa·s
303.15 K, 101 kPa, x1 = 0.002695 | 0.829 ± 0.019 mPa·s
303.15 K, 101 kPa, x1 = 0.01069 | 0.9202 ± 0.019 mPa·s
303.15 K, 101 kPa, x1 = 0.01245 | 0.9412 ± 0.02 mPa·s
308.15 K, 101 kPa, x1 = 0.000169 | 0.7568 ± 0.036 mPa·s and 0.7568 ± 0.031 mPa·s
308.15 K, 101 kPa, x1 = 0.00045 | 0.7238 ± 0.017 mPa·s
308.15 K, 101 kPa, x1 = 0.000844 | 0.7678 ± 0.036 mPa·s and 0.7678 ± 0.031 mPa·s
308.15 K, 101 kPa, x1 = 0.0009 | 0.7288 ± 0.017 mPa·s
308.15 K, 101 kPa, x1 = 0.00135 | 0.7338 ± 0.017 mPa·s
308.15 K, 101 kPa, x1 = 0.00178 | 0.7755 ± 0.037 mPa·s and 0.7755 ± 0.031 mPa·s
308.15 K, 101 kPa, x1 = 0.002245 | 0.7439 ± 0.017 mPa·s
308.15 K, 101 kPa, x1 = 0.002695 | 0.749 ± 0.017 mPa·s
308.15 K, 101 kPa, x1 = 0.003596 | 0.799 ± 0.038 mPa·s and 0.799 ± 0.031 mPa·s
308.15 K, 101 kPa, x1 = 0.005338 | 0.8044 ± 0.038 mPa·s and 0.8044 ± 0.031 mPa·s
308.15 K, 101 kPa, x1 = 0.007149 | 0.8133 ± 0.038 mPa·s and 0.8133 ± 0.031 mPa·s
308.15 K, 101 kPa, x1 = 0.008823 | 0.8201 ± 0.039 mPa·s and 0.8201 ± 0.031 mPa·s
308.15 K, 101 kPa, x1 = 0.01087 | 0.8366 ± 0.04 mPa·s and 0.8366 ± 0.031 mPa·s
308.15 K, 101 kPa, x1 = 0.0124 | 0.8431 ± 0.04 mPa·s and 0.8431 ± 0.031 mPa·s
308.15 K, 101 kPa, x1 = 0.01417 | 0.8612 ± 0.041 mPa·s and 0.8612 ± 0.031 mPa·s
313.15 K, 101 kPa, x1 = 0.00045 | 0.6571 ± 0.015 mPa·s
313.15 K, 101 kPa, x1 = 0.0009 | 0.6618 ± 0.015 mPa·s
313.15 K, 101 kPa, x1 = 0.00135 | 0.6666 ± 0.015 mPa·s
313.15 K, 101 kPa, x1 = 0.0018 | 0.6714 ± 0.015 mPa·s
313.15 K, 101 kPa, x1 = 0.002245 | 0.6761 ± 0.015 mPa·s
313.15 K, 101 kPa, x1 = 0.002695 | 0.6809 ± 0.016 mPa·s
313.15 K, 101 kPa, x1 = 0.005374 | 0.6994 ± 0.015 mPa·s
313.15 K, 101 kPa, x1 = 0.008931 | 0.7316 ± 0.015 mPa·s
313.15 K, 101 kPa, x1 = 0.01245 | 0.7659 ± 0.016 mPa·s
318.15 K, 101 kPa, x1 = 0.000169 | 0.6345 ± 0.03 mPa·s
318.15 K, 101 kPa, x1 = 0.00045 | 0.6014 ± 0.014 mPa·s
318.15 K, 101 kPa, x1 = 0.000844 | 0.6454 ± 0.031 mPa·s and 0.6454 ± 0.03 mPa·s
318.15 K, 101 kPa, x1 = 0.0009 | 0.6059 ± 0.014 mPa·s
318.15 K, 101 kPa, x1 = 0.00135 | 0.6104 ± 0.014 mPa·s
318.15 K, 101 kPa, x1 = 0.00178 | 0.6589 ± 0.031 mPa·s and 0.6589 ± 0.03 mPa·s
318.15 K, 101 kPa, x1 = 0.0018 | 0.6149 ± 0.014 mPa·s
318.15 K, 101 kPa, x1 = 0.002245 | 0.6195 ± 0.014 mPa·s
318.15 K, 101 kPa, x1 = 0.002695 | 0.624 ± 0.014 mPa·s
318.15 K, 101 kPa, x1 = 0.003596 | 0.6733 ± 0.032 mPa·s and 0.6733 ± 0.031 mPa·s
318.15 K, 101 kPa, x1 = 0.005338 | 0.6747 ± 0.032 mPa·s and 0.6747 ± 0.031 mPa·s
318.15 K, 101 kPa, x1 = 0.007149 | 0.6774 ± 0.032 mPa·s and 0.6774 ± 0.031 mPa·s
318.15 K, 101 kPa, x1 = 0.008823 | 0.699 ± 0.033 mPa·s and 0.699 ± 0.031 mPa·s
318.15 K, 101 kPa, x1 = 0.01087 | 0.7009 ± 0.033 mPa·s and 0.7009 ± 0.031 mPa·s
318.15 K, 101 kPa, x1 = 0.0124 | 0.7145 ± 0.034 mPa·s and 0.7145 ± 0.031 mPa·s
318.15 K, 101 kPa, x1 = 0.01417 | 0.7345 ± 0.035 mPa·s and 0.7345 ± 0.031 mPa·s
323.15 K, 101 kPa, x1 = 0.005374 | 0.5833 ± 0.012 mPa·s
323.15 K, 101 kPa, x1 = 0.008931 | 0.6095 ± 0.013 mPa·s
323.15 K, 101 kPa, x1 = 0.01069 | 0.6229 ± 0.013 mPa·s
323.15 K, 101 kPa, x1 = 0.01245 | 0.6364 ± 0.013 mPa·s

CC12CCC(CC1)C(C)(C)O2 + C=CC(C)(O)CCC=C(C)C
viscosity [mPa·s], 101.33 kPa
Settings | 298.15 K | 313.15 K
x1 = 0.0536 | 4.296 ± 0.035 | 2.489 ± 0.02
x1 = 0.1357 | 4.062 ± 0.033 | 2.401 ± 0.02
x1 = 0.2205 | 3.835 ± 0.031 | 2.316 ± 0.019
x1 = 0.3081 | 3.614 ± 0.029 | 2.236 ± 0.018
x1 = 0.4288 | 3.347 ± 0.027 | 2.138 ± 0.018
x1 = 0.562 | 3.093 ± 0.025 | 2.048 ± 0.017
x1 = 0.605 | 3.019 ± 0.025 | 2.023 ± 0.017
x1 = 0.6809 | 2.9 ± 0.024 | 1.983 ± 0.016
x1 = 0.8027 | 2.74 ± 0.022 | 1.933 ± 0.016
x1 = 0.8783 | 2.66 ± 0.022 | 1.91 ± 0.016
x1 = 0.9599 | 2.591 ± 0.021 | 1.892 ± 0.016

Nc1cccc(Cl)c1 + Cc1ccccc1Cl
viscosity [mPa·s], 100 kPa
Settings | x1 = 0.0744 | x1 = 0.1659 | x1 = 0.2575 | x1 = 0.3522 | x1 = 0.4708 | x1 = 0.5714 | x1 = 0.6762 | x1 = 0.7838 | x1 = 0.8902
303.15 K | 1.146 ± 0.051 | 1.462 ± 0.051 | 1.777 ± 0.051 | 2.1 ± 0.052 | 2.502 ± 0.053 | 2.84 ± 0.054 | 3.191 ± 0.055 | 3.548 ± 0.056 | 3.898 ± 0.057
308.15 K | 1.044 ± 0.051 | 1.329 ± 0.051 | 1.614 ± 0.051 | 1.906 ± 0.052 | 2.267 ± 0.053 | 2.573 ± 0.053 | 2.888 ± 0.054 | 3.209 ± 0.055 | 3.523 ± 0.056
313.15 K | 0.9401 ± 0.051 | 1.196 ± 0.051 | 1.45 ± 0.051 | 1.71 ± 0.052 | 2.033 ± 0.052 | 2.304 ± 0.053 | 2.585 ± 0.053 | 2.871 ± 0.054 | 3.149 ± 0.055
318.15 K | 0.8312 ± 0.051 | 1.059 ± 0.051 | 1.283 ± 0.051 | 1.512 ± 0.051 | 1.797 ± 0.052 | 2.036 ± 0.053 | 2.283 ± 0.053 | 2.534 ± 0.054 | 2.778 ± 0.055
